Reference: ChEMBL document CHEMBL1201862, “PubChem BioAssay data set” (2004)
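Method: 48-hour compound exposure of cells in 96-well plates, five concentrations, linear interpolation of endpoints. Here, GI50 denotes the concentration required for 50% inhibition of growth.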 Calls of active or inactive are those of the source. Cut-off read from the data, not from the text of the source: active = GI50 up to about 1.1 µM and inactive = higher.

Tests used:
Assay in all cases: NCI tumour cell line growth inhibition, 48 h
NCI-H23 = system: NCI-H23
HCT-116 = system: HCT-116
K562 = system: K562
OVCAR-4 = system: OVCAR-4
RXF 393 = system: RXF 393
TK-10 = system: TK-10
UACC-257 = system: UACC-257
SR = system: SR
CAKI-1 = system: CAKI-1
RPMI-8226 = system: RPMI-8226
SF-295 = system: SF-295
IGROV-1 = system: IGROV-1
ACHN = system: ACHN
CCRF-CEM = system: CCRF-CEM
SNB-75 = system: SNB-75
NCI-H522 = system: NCI-H522
SK-MEL-5 = system: SK-MEL-5
A498 = system: A498

Measured: GI50

CCOc1ccc(/C(Cl)=C(\C=O)c2ccc(OC)c(OC)c2)cc1OCC
inactive: NCI-H23 23.3 µM | HCT-116 33.8 µM | K562 23.5 µM | OVCAR-4 38.7 µM | RXF 393 31.4 µM | TK-10 80.9 µM | UACC-257 32.3 µM | SR 20.3 µM | CAKI-1 > 100 µM | RPMI-8226 28.1 µM | SF-295 72.6 µM | IGROV-1 > 100 µM | ACHN 37.1 µM | CCRF-CEM 12.7 µM | SNB-75 29.9 µM | NCI-H522 18.2 µM | SK-MEL-5 22.5 µM

COc1cc(C2C(Cl)C(=O)N2NC(=O)Cc2ccccc2)ccc1O (stereo not given)
inactive: NCI-H23 45.1 µM | HCT-116 45.6 µM | K562 35.2 µM | OVCAR-4 > 100 µM | RXF 393 59 µM | TK-10 > 100 µM | UACC-257 > 100 µM | SR 18.3 µM | CAKI-1 > 100 µM | RPMI-8226 32.6 µM | SF-295 > 100 µM | IGROV-1 > 100 µM | ACHN 93.5 µM | CCRF-CEM 23.9 µM | SNB-75 35.8 µM | NCI-H522 21.3 µM | SK-MEL-5 69.7 µM

COc1ccc(C(C2=C(O)CC(C)OC2=O)C2=C(O)CC(C)OC2=O)cc1 (stereo not given)
inactive: NCI-H23 > 100 µM | HCT-116 > 100 µM | K562 > 100 µM | OVCAR-4 > 100 µM | UACC-257 > 100 µM | SR > 100 µM | CAKI-1 > 100 µM | RPMI-8226 > 100 µM | SF-295 > 100 µM | IGROV-1 > 100 µM | ACHN > 100 µM | CCRF-CEM > 100 µM | SNB-75 > 100 µM | NCI-H522 > 100 µM | SK-MEL-5 > 100 µM

ClCc1ccc(C2OCCO2)cc1
inactive: A498 20.8 µM | NCI-H23 12.2 µM | HCT-116 > 35.6 µM | K562 > 31.6 µM | RXF 393 > 45.7 µM | TK-10 > 49 µM | UACC-257 14.5 µM | SR 11.1 µM | RPMI-8226 21.4 µM | SF-295 17.9 µM | IGROV-1 > 72.4 µM | ACHN > 42.4 µM | CCRF-CEM > 37.7 µM | SNB-75 22.4 µM | NCI-H522 14.8 µM | SK-MEL-5 24.8 µM

O=C1C(Cl)C(c2ccccc2O)N1n1cnc2ccccc2c1=O (stereo not given)
inactive: NCI-H23 49 µM | HCT-116 64.3 µM | K562 58.1 µM | OVCAR-4 23.7 µM | RXF 393 22.7 µM | TK-10 > 100 µM | UACC-257 46.7 µM | SR 27.4 µM | CAKI-1 37.8 µM | RPMI-8226 6.75 µM | SF-295 53.6 µM | IGROV-1 61.7 µM | ACHN 39.4 µM | CCRF-CEM 19.8 µM | SNB-75 20.4 µM | NCI-H522 23.6 µM | SK-MEL-5 56.2 µM

O=C(N/C(=C\c1ccc([N+](=O)[O-])cc1)c1nc2cc(Cl)ccc2[nH]1)c1ccccc1
inactive: NCI-H23 18.1 µM | K562 12.8 µM | OVCAR-4 15.7 µM | RXF 393 21 µM | TK-10 32.4 µM | SR 18 µM | CAKI-1 24.4 µM | SF-295 23.8 µM | IGROV-1 16.9 µM | ACHN 22 µM | CCRF-CEM 18.6 µM | NCI-H522 11.9 µM | SK-MEL-5 17.6 µM

CS/C(=N\c1ccccc1Cl)NC(=O)c1ccc(Br)cc1
inactive: NCI-H23 > 100 µM | HCT-116 > 100 µM | K562 14.9 µM | OVCAR-4 18.2 µM | RXF 393 31.3 µM | TK-10 28.2 µM | UACC-257 > 100 µM | SR 40.5 µM | CAKI-1 32.1 µM | RPMI-8226 55.5 µM | SF-295 59.3 µM | IGROV-1 62.8 µM | ACHN > 100 µM | CCRF-CEM > 10 µM | NCI-H522 40.6 µM
